Experimental data from patent publication US20100204230A1, “PIPERAZINE DERIVATIVES FOR TREATMENT OF AD AND RELATED CONDITIONS” (priority 2007, published 2010).

Target: T1, γ-secretase (Aβ(1-42) production in SH-SY5Y neuroblastoma cells overexpressing SPA4CT) (Homo sapiens, UniProt P49768)
T1 construct: Human SH-SY5Y neuroblastoma cells overexpressing the direct 7-secretase substrate SPA4CT; endogenous in cells; host or cells: Human SH-SY5Y neuroblastoma cells (stably overexpressing the substrate SPA4CT, induced with sodium butyrate)
Test: Cell-based γ-secretase assay, Aβ(1-42) inhibition
Settings: overnight incubation, Meso Scale detection of Aβ(42)
Procedure: Cell-Based γ-Secretase Assay
Human SH-SY5Y neuroblastoma cells overexpressing the direct 7-secretase substrate SPA4CT were induced with sodium butyrate (10 mM) for 4 hours prior to plating. Cells were plated at 35,000 cells/well/100 μl in 96-well plates in phenol red-free MEM/10% FBS, 50 mM HEPES, 1% Glutamine and incubated for 2 hrs at 37° C., 5% CO2.
Compounds for testing were diluted into Me2SO to give a ten point dose-response curve. Typically 10 μl of these diluted compounds in Me2SO were further diluted into 182 μl dilution buffer (phenol red-free MEM/10% FBS, 50 mM HEPES, 1% Glutamine) and 10 μl of each dilution was added to the cells in 96-well plates (yielding a final Me2SO concentration of 0.5%). Appropriate vehicle and inhibitor controls were used to determine the window of the assay.
After incubation overnight at 37° C., 5% CO2, 25 μl and 50 μl media were transferred into a standard Meso avidin-coated 96-well plate for detection of Aβ(40) and Aβ(42) peptides, respectively. 25 μl Meso Assay buffer (PBS, 2% BSA, 0.2% Tween-20) was added to the Aβ(40) wells followed by the addition of 25 μl of the respective antibody premixes to the wells: • Aβ(40) premix: 1 μg/ml ruthenylated G2-10 antibody, 4 μg/ml biotinylated 4G8 antibody diluted in Origen buffer • Aβ(42) premix: 1 μg/ml ruthenylated G2-11 antibody, 4 μg/ml biotinylated 4G8 antibody diluted in Origen buffer
(Biotinylated 4G8 antibody supplied by Signet Pathology Ltd; G2-10 and G2-11 antibodies supplied by Chemicon)
After overnight incubation of the assay plates on a shaker at 4° C., the Meso Scale Sector 6000 Imager was calibrated according to the manufacturer's instructions. After washing the plates 3 times with 150 μl of PBS per well, 150 μl Meso Scale Discovery read buffer was added to each well and the plates were read on the Sector 6000 Imager according to the manufacturer's instructions.
LD50 and IC50 values for inhibition of Aβ(40) and Aβ(42) were calculated by nonlinear regression fit analysis using the appropriate software (eg. Excel fit). The total signal and the background were defined by the corresponding Me2SO and inhibitor controls.

SMILES	IC50
CCN(CC)c1ccc(Nc2ccnc(N3CCN(c4ccc(OC)c(OC)c4)CC3)n2)c(C)c1 [Example 24, N1-{2-[4-(3,4-dimethoxyphenyl)piperazin-1-yl]pyrimidin-4-yl}-N4,N4-diethyl-2-methylbenzene-1,4-diamine]	1000 to 3000 nM
COc1ccc(N2CCN(c3ncc(F)c(Nc4cc(C(C)(C)C)ccc4C)n3)CC2(C)C)cc1F [Example 88, N-(5-tert-butyl-2-methylphenyl)-5-fluoro-2-[4-(3-fluoro-4-methoxyphenyl)-3,3-dimethylpiperazin-1-yl]pyrimidin-4-amine]	500 to 1000 nM
COc1ccc(N2CCN(c3ncc(F)c(Nc4cc(C(C)(C)C)ccc4C)n3)CC2(C)C)cc1 [Example 8]	500 to 1000 nM
CCN(CC)c1ccc(Nc2ccnc(N3CCN(c4ccc(OC)cc4)C(C)C3)n2)c(C)c1 (stereo not shown) [Example 10, N4,N4-diethyl-N1-{2-[4-(4-methoxyphenyl)-3-methylpiperazin-1-yl]pyrimidin-4-yl}-2-methylbenzene-1,4-diamine]	500 to 1000 nM
CCOc1cc(C)c(Nc2ccnc(N3CCN(c4ccc(OC)cc4)C(C)(C)C3)n2)cc1C(C)C [Example 45, N-(4-ethoxy-5-isopropyl-2-methylphenyl)-2-[4-(4-methoxyphenyl)-3,3-dimethylpiperazin-1-yl]pyrimidin-4-amine]	< 500 nM
CCN(CC)c1ccc(Nc2nc(N3CCN(c4ccc(OC)cc4)C(C)(C)C3)ncc2Cl)c(C)c1 [Example 19, N1-{5-chloro-2-[4-(4-methoxyphenyl)-3,3-dimethylpiperazin-1-yl]pyrimidin-4-yl}-N4,N4-diethyl-2-methylbenzene-1,4-diamine]	500 to 1000 nM
COc1ccc(N2CCN(c3nccc(Nc4ccc(-n5cccn5)cc4C)n3)CC2(C)C)cc1 [Example 41, 2-[4-(4-methoxyphenyl)-3,3-dimethylpiperazin-1-yl]-N-[2-methyl-4-(1H-pyrazol-1-yl)phenyl]pyrimidin-4-amine]	500 to 1000 nM
COc1ccc(N2CCN(c3nccc(Nc4cc(C(C)(C)C)nn4C)n3)CC2(C)C)cc1 [Example 37, N-(3-tert-butyl-1-methyl-1H-pyrazol-5-yl)-2-[4-(4-methoxyphenyl)-3,3-dimethylpiperazin-1-yl]pyrimidin-4-amine]	< 500 nM
COc1ccc(N2CCN(c3ncc(F)c(Nc4cc(C(C)(C)C)nn4C)n3)CC2(C)C)cc1 [Example 38, N-(3-tert-butyl-1-methyl-1H-pyrazol-5-yl)-5-fluoro-2-[4-(4-methoxyphenyl)-3,3-dimethylpiperazin-1-yl]pyrimidin-4-amine]	< 500 nM
CCN(CC)c1ccc(Nc2nc(N3CCN(c4ccc(OC)cc4)C(C)(C)C3)ncc2OC)c(C)c1 [Example 25, N4,N4-diethyl-N1-{5-methoxy-2-[4-(4-methoxyphenyl)-3,3-dimethylpiperazin-1-yl]pyrimidin-4-yl}-2-methylbenzene-1,4-diamine]	< 500 nM
CCN(CC)c1ccc(Nc2cc(C(=O)N(C)C)nc(N3CCN(c4ccc(OC)cc4)C(C)(C)C3)n2)c(C)c1 [Example 27, 6-{[4-(diethylamino)-2-methylphenyl]amino}-2-[4-(4-methoxyphenyl)-3,3-dimethylpiperazin-1-yl]-N,N-dimethylpyrimidine-4-carboxamide]	< 500 nM
CCN(CC)c1ccc(Nc2cc(C(=O)O)nc(N3CCN(c4ccc(OC)cc4)C(C)(C)C3)n2)c(C)c1 [Example 26, 6-[[4-(diethylamino)-2-methylphenyl]amino]-2-[4-(4-methoxyphenyl)-3,3-dimethyl-1-piperazinyl]-4-pyrimidinecarboxylic acid]	500 to 1000 nM
CCCCc1ccc(Nc2ccnc(N3CCN(c4ccc(OC)cc4)C(C)(C)C3)n2)c(C)c1 [Example 44, N-(4-butyl-2-methylphenyl)-2-[4-(4-methoxyphenyl)-3,3-dimethylpiperazin-1-yl]pyrimidin-4-amine]	1000 to 3000 nM
CCN(CC)c1ccc(Nc2nc(N3CCN(c4ccc(OC)cc4)C(C)(C)C3)ncc2Br)c(C)c1 [Example 20, N1-{5-bromo-2-[4-(4-methoxyphenyl)-3,3-dimethylpiperazin-1-yl]pyrimidin-4-yl}-N4,N4-diethyl-2-methylbenzene-1,4-diamine]	500 to 1000 nM
COc1ccc(N2CCN(c3nccc(Nc4cc(OC)ccc4C)n3)CC2(C)C)cc1 [Example 11, N-(5-methoxy-2-methylphenyl)-2-[4-(4-methoxyphenyl)-3,3-dimethylpiperazin-1-yl]pyrimidin-4-amine]	1000 to 3000 nM
CCN(CC)c1ccc(Nc2ccnc(N3CCN(c4ccc(OC)cc4)CC3)n2)c(C)c1 [Example 3, N,N-Diethyl-N-{2-[4-(4-methoxy-phenyl)-piperazin-1-yl]-pyrimidin-4-yl}-2-methyl-benzene-1,4-diamine]	1000 to 3000 nM
COc1ccc(N2CCN(c3nc(Nc4cc(C(C)(C)C)ccc4C)cc(C(=O)N(C)CCN(C)C)n3)CC2(C)C)cc1 [Example 93, 6-[(5-tert-butyl-2-methylphenyl)amino]-N-[2-(dimethylamino)ethyl]-2-[4-(4-methoxyphenyl)-3,3-dimethylpiperazin-1-yl]-N-methylpyrimidine-4-carboxamide]	< 500 nM
CCN(CC)c1ccc(Nc2cc(C(=O)OC)nc(N3CCN(c4ccc(OC)cc4)C(C)(C)C3)n2)c(C)c1 [Example 22, methyl 6-{[4-(diethylamino)-2-methylphenyl]amino}-2-[4-(4-methoxyphenyl)-3,3-dimethylpiperazin-1-yl]pyrimidine-4-carboxylate]	< 500 nM
CCOc1cc(C)c(Nc2cc(C(=O)OC)nc(N3CCN(c4ccc(OC)cc4)C(C)(C)C3)n2)cc1C(C)C [Example 28, 6-[(4-ethoxy-5-isopropyl-2-methylphenyl)amino]-2-[4-(4-methoxyphenyl)-3,3-dimethylpiperazin-1-yl]pyrimidine-4-carboxylate methyl]	< 500 nM
CCN(CC)c1ccc(Nc2cc(C)nc(N3CCN(c4ccc(OC)cc4)C(C)(C)C3)n2)c(C)c1 [Example 15, N4,N4-diethyl-N1-{2-[4-(4-methoxyphenyl)-3,3-dimethylpiperazin-1-yl]-6-methylpyrimidin-4-yl}-2-methylbenzene-1,4-diamine]	500 to 1000 nM
CCN(CC)c1cc(C)c(Nc2ccnc(N3CCN(c4ccc(OC)cc4)C(C)(C)C3)n2)cc1C [Example 16, N4,N4-diethyl-N1-{2-[4-(4-methoxyphenyl)-3,3-dimethylpiperazin-1-yl]pyrimidin-4-yl}-2,5-dimethylbenzene-1,4-diamine]	< 500 nM
CCN(CC)c1ccc(Nc2nc(N3CCN(c4ccc(OC)cc4)C(C)(C)C3)ncc2C)c(C)c1 [Example 14, N4,N4-diethyl-N1-{2-[4-(4-methoxyphenyl)-3,3-dimethylpiperazin-1-yl]-5-methylpyrimidin-4-yl}-2-methylbenzene-1,4-diamine]	< 500 nM
CCN(CC)c1ccc(Nc2ccnc(N3CCN(c4ccc(OC)nc4)CC3)n2)c(C)c1 [Example 5]	1000 to 3000 nM
CCN(CC)c1ccc(Nc2nc(N3CCN(c4ccc(OC)cc4)C(C)(C)C3)ncc2F)c(C)c1 [Example 18, N4,N4-diethyl-N1--{5-fluoro-2-[4-(4-methoxyphenyl)-3,3-dimethylpiperazin-1-yl]pyrimidin-4-yl}-2-methylbenzene-1,4-diamine]	< 500 nM
COc1ccc(N2CCN(c3nccc(Nc4ccc(N5CCC5)cc4C)n3)CC2(C)C)cc1 [Example 43, N-(4-azetidin-1-yl-2-methylphenyl)-2-[4-(4-methoxyphenyl)-3,3-dimethylpiperazin-1-yl]pyrimidin-4-amine]	500 to 1000 nM
